Measured values from the kinase profiling compilation of Christmann-Franck et al. (2016).

Molecular target: MAP3K11 (human) (UniProt Q16584)
Assay: radiometric filter-binding kinase assay, Kinase HotSpot
Settings: compound 0.5 µM; ATP 10 µM

| SMILES | residual activity [%] |
| --- | --- |
| CCOc1cc2ncnc(Nc3cccc(Br)c3)c2cc1OCC | 93 |
| COc1cc2c(N3CCN(C(=O)Nc4ccc(OC(C)C)cc4)CC3)ncnc2cc1OCCCN1CCCCC1 | 100 |
| O=C1NC(=O)c2c1c1c3ccccc3[nH]c1c1[nH]c3cc(Br)ccc3c21 | 14 |
| O=c1[nH]c2ccccc2n1C1CCN(Cc2ccc(-c3nc4cc5[nH]cnc5cc4nc3-c3ccccc3)cc2)CC1 | 94.6 |

Molecular target: PNCK (human) (UniProt Q6P2M8)
Assay: as above
Settings: compound 0.5 µM; ATP 10 µM

Sequence of PNCK (human) (Q6P2M8 whole entry, looked up): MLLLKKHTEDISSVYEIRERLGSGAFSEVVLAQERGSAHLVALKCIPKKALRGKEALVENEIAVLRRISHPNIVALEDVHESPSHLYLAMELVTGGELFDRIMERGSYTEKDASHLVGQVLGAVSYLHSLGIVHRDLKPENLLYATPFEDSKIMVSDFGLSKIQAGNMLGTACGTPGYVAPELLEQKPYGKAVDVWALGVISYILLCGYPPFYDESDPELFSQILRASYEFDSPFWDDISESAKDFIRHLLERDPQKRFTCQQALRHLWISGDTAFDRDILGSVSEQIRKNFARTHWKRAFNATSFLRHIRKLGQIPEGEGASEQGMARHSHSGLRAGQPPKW

| SMILES | residual activity [%] |
| --- | --- |
| CCOc1cc2ncnc(Nc3cccc(Br)c3)c2cc1OCC | 103 |
| COc1cc2c(N3CCN(C(=O)Nc4ccc(OC(C)C)cc4)CC3)ncnc2cc1OCCCN1CCCCC1 | 97.7 |
| O=C1NC(=O)c2c1c1c3ccccc3[nH]c1c1[nH]c3cc(Br)ccc3c21 | 99.4 |
| O=c1[nH]c2ccccc2n1C1CCN(Cc2ccc(-c3nc4cc5[nH]cnc5cc4nc3-c3ccccc3)cc2)CC1 | 95.5 |

Molecular target: MYLK (human) (UniProt Q15746)
Assay: as above
Settings: compound 0.5 µM

| SMILES | residual activity [%] |
| --- | --- |
| O=c1[nH]c2ccccc2n1C1CCN(Cc2ccc(-c3nc4cc5[nH]cnc5cc4nc3-c3ccccc3)cc2)CC1 | 104 |

Same assay, conditions: compound 0.5 µM; ATP 10 µM

| SMILES | residual activity [%] |
| --- | --- |
| CCOc1cc2ncnc(Nc3cccc(Br)c3)c2cc1OCC | 89.4 |
| COc1cc2c(N3CCN(C(=O)Nc4ccc(OC(C)C)cc4)CC3)ncnc2cc1OCCCN1CCCCC1 | 96.6 |
| O=C1NC(=O)c2c1c1c3ccccc3[nH]c1c1[nH]c3cc(Br)ccc3c21 | 85.3 |

Molecular target: TEK (human) (UniProt Q02763)
Assay: as above
Settings: compound 0.5 µM; ATP 10 µM

Sequence of TEK (human) (Q02763 whole entry, looked up): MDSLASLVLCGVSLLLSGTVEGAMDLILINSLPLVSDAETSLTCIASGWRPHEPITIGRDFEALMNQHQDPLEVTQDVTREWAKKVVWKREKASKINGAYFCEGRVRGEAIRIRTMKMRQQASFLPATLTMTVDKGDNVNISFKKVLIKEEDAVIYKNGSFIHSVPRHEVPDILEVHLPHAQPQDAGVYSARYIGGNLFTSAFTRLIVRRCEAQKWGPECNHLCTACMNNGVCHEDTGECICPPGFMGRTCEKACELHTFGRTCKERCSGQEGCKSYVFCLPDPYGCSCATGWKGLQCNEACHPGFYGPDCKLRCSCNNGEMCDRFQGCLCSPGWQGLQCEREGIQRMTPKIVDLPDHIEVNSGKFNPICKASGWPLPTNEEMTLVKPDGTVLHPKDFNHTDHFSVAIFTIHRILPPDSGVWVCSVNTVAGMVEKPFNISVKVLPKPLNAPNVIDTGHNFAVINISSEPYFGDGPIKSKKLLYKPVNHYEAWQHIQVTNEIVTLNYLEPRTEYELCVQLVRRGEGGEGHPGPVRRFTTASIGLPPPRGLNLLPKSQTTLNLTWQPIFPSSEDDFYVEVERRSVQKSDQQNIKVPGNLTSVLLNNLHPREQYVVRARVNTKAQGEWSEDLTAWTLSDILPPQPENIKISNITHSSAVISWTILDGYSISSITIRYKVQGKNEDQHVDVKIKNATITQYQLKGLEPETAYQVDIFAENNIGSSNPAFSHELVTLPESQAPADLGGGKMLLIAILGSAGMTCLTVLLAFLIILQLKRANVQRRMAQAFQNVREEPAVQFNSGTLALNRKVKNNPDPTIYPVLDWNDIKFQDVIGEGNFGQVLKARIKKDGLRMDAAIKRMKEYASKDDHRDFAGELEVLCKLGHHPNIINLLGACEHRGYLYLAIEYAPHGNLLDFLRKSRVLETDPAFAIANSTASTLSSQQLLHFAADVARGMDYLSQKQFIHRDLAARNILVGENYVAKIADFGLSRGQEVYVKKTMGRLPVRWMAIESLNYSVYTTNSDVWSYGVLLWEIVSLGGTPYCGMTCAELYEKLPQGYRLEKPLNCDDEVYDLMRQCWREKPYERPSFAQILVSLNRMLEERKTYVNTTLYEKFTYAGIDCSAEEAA

| SMILES | residual activity [%] |
| --- | --- |
| CCOc1cc2ncnc(Nc3cccc(Br)c3)c2cc1OCC | 96.4 |
| COc1cc2c(N3CCN(C(=O)Nc4ccc(OC(C)C)cc4)CC3)ncnc2cc1OCCCN1CCCCC1 | 99.6 |
| O=C1NC(=O)c2c1c1c3ccccc3[nH]c1c1[nH]c3cc(Br)ccc3c21 | 93.8 |
| O=c1[nH]c2ccccc2n1C1CCN(Cc2ccc(-c3nc4cc5[nH]cnc5cc4nc3-c3ccccc3)cc2)CC1 | 102 |

Molecular target: CAMK1G (human) (UniProt Q96NX5)
Assay: as above
Settings: compound 0.5 µM; ATP 10 µM

Sequence of CAMK1G (human) (Q96NX5 whole entry, looked up): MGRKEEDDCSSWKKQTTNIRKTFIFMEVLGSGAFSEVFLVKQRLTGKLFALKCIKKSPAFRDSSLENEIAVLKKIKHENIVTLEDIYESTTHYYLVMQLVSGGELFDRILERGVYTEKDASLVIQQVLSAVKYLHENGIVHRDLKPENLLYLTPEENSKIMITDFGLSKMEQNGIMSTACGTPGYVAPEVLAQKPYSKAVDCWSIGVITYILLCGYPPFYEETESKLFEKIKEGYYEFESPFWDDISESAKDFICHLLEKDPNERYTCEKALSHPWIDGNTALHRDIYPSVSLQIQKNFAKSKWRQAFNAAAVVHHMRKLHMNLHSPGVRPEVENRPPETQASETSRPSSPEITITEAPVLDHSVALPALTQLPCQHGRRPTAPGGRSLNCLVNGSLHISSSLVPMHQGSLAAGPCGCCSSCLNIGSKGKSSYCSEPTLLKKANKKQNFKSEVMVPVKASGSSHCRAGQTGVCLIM

| SMILES | residual activity [%] |
| --- | --- |
| CCOc1cc2ncnc(Nc3cccc(Br)c3)c2cc1OCC | 97.2 |
| COc1cc2c(N3CCN(C(=O)Nc4ccc(OC(C)C)cc4)CC3)ncnc2cc1OCCCN1CCCCC1 | 94.6 |
| O=C1NC(=O)c2c1c1c3ccccc3[nH]c1c1[nH]c3cc(Br)ccc3c21 | 94.5 |
| O=c1[nH]c2ccccc2n1C1CCN(Cc2ccc(-c3nc4cc5[nH]cnc5cc4nc3-c3ccccc3)cc2)CC1 | 101 |

Molecular target: MAP3K10 (human) (UniProt Q02779)
Assay: as above
Settings: compound 0.5 µM; ATP 10 µM

Sequence of MAP3K10 (human) (Q02779 whole entry, looked up): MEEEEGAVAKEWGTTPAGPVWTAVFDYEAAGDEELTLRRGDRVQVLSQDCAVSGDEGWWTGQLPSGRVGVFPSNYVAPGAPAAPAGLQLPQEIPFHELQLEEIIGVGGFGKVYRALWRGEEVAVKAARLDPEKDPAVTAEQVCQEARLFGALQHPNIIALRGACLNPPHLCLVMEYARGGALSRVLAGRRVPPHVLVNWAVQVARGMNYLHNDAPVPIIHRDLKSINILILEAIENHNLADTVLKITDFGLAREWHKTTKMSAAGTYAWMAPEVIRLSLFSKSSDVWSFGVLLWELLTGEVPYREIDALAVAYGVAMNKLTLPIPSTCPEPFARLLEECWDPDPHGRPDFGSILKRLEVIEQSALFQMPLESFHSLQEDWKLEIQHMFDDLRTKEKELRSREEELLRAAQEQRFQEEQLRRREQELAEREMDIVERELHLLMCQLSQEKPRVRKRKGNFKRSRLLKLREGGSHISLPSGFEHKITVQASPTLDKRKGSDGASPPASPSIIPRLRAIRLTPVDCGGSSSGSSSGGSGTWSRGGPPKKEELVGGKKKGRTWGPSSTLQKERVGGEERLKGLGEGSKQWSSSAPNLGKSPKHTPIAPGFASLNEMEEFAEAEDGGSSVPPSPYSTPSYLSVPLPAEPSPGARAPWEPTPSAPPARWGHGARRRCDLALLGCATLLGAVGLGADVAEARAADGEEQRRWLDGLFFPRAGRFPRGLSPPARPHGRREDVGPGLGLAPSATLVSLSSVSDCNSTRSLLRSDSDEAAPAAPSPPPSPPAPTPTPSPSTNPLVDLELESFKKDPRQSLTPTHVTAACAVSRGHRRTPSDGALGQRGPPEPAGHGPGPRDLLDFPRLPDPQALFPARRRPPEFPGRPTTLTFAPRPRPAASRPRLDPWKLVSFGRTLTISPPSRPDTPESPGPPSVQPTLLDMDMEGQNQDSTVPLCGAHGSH

| SMILES | residual activity [%] |
| --- | --- |
| CCOc1cc2ncnc(Nc3cccc(Br)c3)c2cc1OCC | 93.2 |
| COc1cc2c(N3CCN(C(=O)Nc4ccc(OC(C)C)cc4)CC3)ncnc2cc1OCCCN1CCCCC1 | 101 |
| O=C1NC(=O)c2c1c1c3ccccc3[nH]c1c1[nH]c3cc(Br)ccc3c21 | 70.4 |
| O=c1[nH]c2ccccc2n1C1CCN(Cc2ccc(-c3nc4cc5[nH]cnc5cc4nc3-c3ccccc3)cc2)CC1 | 102 |

Molecular target: CAMK2B (human) (UniProt Q13554)
Assay: as above
Settings: compound 0.5 µM; ATP 10 µM

Sequence of CAMK2B (human) (Q13554 whole entry, looked up): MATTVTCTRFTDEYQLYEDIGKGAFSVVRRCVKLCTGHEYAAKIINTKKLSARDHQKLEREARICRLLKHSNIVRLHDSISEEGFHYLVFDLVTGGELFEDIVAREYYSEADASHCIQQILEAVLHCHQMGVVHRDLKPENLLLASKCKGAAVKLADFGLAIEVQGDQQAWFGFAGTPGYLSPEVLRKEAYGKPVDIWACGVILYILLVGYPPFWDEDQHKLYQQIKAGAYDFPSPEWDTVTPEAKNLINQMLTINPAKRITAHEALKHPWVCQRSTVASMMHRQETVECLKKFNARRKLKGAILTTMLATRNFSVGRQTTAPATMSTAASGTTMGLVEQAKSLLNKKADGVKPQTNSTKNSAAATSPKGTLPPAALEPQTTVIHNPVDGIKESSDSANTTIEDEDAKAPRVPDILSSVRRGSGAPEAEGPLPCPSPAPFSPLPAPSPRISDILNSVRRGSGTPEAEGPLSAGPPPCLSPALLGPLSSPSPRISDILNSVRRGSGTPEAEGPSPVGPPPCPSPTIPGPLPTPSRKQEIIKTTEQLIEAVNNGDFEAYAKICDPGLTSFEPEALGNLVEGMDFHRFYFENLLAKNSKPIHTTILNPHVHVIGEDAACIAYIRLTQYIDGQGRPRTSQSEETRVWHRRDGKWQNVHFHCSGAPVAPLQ

| SMILES | residual activity [%] |
| --- | --- |
| CCOc1cc2ncnc(Nc3cccc(Br)c3)c2cc1OCC | 98.8 |
| COc1cc2c(N3CCN(C(=O)Nc4ccc(OC(C)C)cc4)CC3)ncnc2cc1OCCCN1CCCCC1 | 99.9 |
| O=C1NC(=O)c2c1c1c3ccccc3[nH]c1c1[nH]c3cc(Br)ccc3c21 | 80.3 |
| O=c1[nH]c2ccccc2n1C1CCN(Cc2ccc(-c3nc4cc5[nH]cnc5cc4nc3-c3ccccc3)cc2)CC1 | 104 |

Molecular target: OXSR1 (human) (UniProt O95747)
Assay: as above
Settings: compound 0.5 µM; ATP 10 µM

| SMILES | residual activity [%] |
| --- | --- |
| CCOc1cc2ncnc(Nc3cccc(Br)c3)c2cc1OCC | 102 |
| COc1cc2c(N3CCN(C(=O)Nc4ccc(OC(C)C)cc4)CC3)ncnc2cc1OCCCN1CCCCC1 | 95.8 |
| O=C1NC(=O)c2c1c1c3ccccc3[nH]c1c1[nH]c3cc(Br)ccc3c21 | 95.8 |
| O=c1[nH]c2ccccc2n1C1CCN(Cc2ccc(-c3nc4cc5[nH]cnc5cc4nc3-c3ccccc3)cc2)CC1 | 102 |

Molecular target: BRSK2 (human) (UniProt Q8IWQ3)
Assay: as above
Settings: compound 0.5 µM; ATP 10 µM

Sequence of BRSK2 (human) (Q8IWQ3 whole entry, looked up): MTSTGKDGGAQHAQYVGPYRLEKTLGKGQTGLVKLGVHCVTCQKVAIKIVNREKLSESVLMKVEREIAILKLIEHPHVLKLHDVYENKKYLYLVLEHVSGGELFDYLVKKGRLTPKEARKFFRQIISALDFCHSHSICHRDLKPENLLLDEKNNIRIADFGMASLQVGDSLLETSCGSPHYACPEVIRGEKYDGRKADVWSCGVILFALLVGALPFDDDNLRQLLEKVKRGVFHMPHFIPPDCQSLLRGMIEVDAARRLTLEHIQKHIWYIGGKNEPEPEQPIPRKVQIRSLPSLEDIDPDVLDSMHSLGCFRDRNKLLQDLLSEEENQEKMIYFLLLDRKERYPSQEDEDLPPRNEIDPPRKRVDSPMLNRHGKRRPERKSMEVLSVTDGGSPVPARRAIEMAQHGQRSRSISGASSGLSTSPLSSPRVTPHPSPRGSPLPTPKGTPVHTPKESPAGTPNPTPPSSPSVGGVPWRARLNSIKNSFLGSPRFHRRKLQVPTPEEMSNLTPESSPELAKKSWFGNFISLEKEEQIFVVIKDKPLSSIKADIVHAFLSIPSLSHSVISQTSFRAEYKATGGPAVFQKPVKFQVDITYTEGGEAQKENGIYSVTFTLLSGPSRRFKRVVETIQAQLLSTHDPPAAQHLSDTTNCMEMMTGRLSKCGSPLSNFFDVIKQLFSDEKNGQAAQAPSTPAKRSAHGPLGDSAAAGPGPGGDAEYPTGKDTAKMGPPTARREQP

| SMILES | residual activity [%] |
| --- | --- |
| CCOc1cc2ncnc(Nc3cccc(Br)c3)c2cc1OCC | 94 |
| COc1cc2c(N3CCN(C(=O)Nc4ccc(OC(C)C)cc4)CC3)ncnc2cc1OCCCN1CCCCC1 | 98.6 |
| O=C1NC(=O)c2c1c1c3ccccc3[nH]c1c1[nH]c3cc(Br)ccc3c21 | 35.6 |
| O=c1[nH]c2ccccc2n1C1CCN(Cc2ccc(-c3nc4cc5[nH]cnc5cc4nc3-c3ccccc3)cc2)CC1 | 106 |

Molecular target: CLK1 (human) (UniProt P49759)
Assay: as above
Settings: compound 0.5 µM; ATP 10 µM

Sequence of CLK1 (human) (P49759 whole entry, looked up): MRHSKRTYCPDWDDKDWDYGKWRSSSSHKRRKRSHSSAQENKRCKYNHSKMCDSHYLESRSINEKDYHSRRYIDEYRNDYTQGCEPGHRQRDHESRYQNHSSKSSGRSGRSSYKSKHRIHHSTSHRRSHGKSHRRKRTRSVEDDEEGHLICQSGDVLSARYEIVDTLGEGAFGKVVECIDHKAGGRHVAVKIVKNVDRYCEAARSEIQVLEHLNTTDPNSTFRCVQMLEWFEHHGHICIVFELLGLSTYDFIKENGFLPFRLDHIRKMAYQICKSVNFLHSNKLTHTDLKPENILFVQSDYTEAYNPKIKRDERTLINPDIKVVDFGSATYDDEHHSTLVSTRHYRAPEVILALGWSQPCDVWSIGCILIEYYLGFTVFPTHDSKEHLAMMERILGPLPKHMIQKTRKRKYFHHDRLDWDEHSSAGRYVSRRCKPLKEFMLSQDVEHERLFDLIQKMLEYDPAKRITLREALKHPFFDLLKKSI

| SMILES | residual activity [%] |
| --- | --- |
| CCOc1cc2ncnc(Nc3cccc(Br)c3)c2cc1OCC | 97.2 |
| COc1cc2c(N3CCN(C(=O)Nc4ccc(OC(C)C)cc4)CC3)ncnc2cc1OCCCN1CCCCC1 | 72.4 |
| O=C1NC(=O)c2c1c1c3ccccc3[nH]c1c1[nH]c3cc(Br)ccc3c21 | 97 |
| O=c1[nH]c2ccccc2n1C1CCN(Cc2ccc(-c3nc4cc5[nH]cnc5cc4nc3-c3ccccc3)cc2)CC1 | 109 |

Molecular target: CAMK2G (human) (UniProt Q13555)
Assay: as above
Settings: compound 0.5 µM; ATP 10 µM

| SMILES | residual activity [%] |
| --- | --- |
| CCOc1cc2ncnc(Nc3cccc(Br)c3)c2cc1OCC | 96.5 |
| COc1cc2c(N3CCN(C(=O)Nc4ccc(OC(C)C)cc4)CC3)ncnc2cc1OCCCN1CCCCC1 | 101 |
